Experimental data as given in patent US8940768B2, “Antifungal triazole derivatives” (Daewoong Pharmaceutical Co., Ltd., priority 2010, dated 2015).
Values after ≈ are worked out from the molar mass of the structure shown. Like-named read-outs stand apart in the source and are kept apart here.

Experiments:
Format in all cases: cell-based
Candida albicans = test: in vitro antifungal activity (MIC80), Candida albicans; conditions: 80% growth inhibition vs negative control, RPMI 1640, read 24 hrs after application
Protocol: (§1) The compounds of the present invention were evaluated for inhibitory activity against yeast molds including Candida albicans, Candida glabrata, Candida krusei, Candida tropicalis, Candida parapsilosis, and Cryptococcus neoformans, and filamentous fungi including Aspergillus fumigatus, Trichophyton mentagrophytes (obtained from KCTC (Korean Collection for Type Cultures), and Trichophyton rubrum (obtained from KCCM (Korean Culture Center of Microorganisms). All the strains, but Trichophyton mentagrophytes and Trichophyton rubrum, were purchased from the ATCC (American Type Culture Collection).
(§2) Of the strains used in this test, Candida albicans, Candida glabrata, Candida krusei, Candida tropicalis, Candida parapsilosis, Trichophyton mentagrophytes and Trichophyton rubrum were inoculated into sabouraud dextrose agars (Difco, BD-0109), Cryptococcus neoformans into a yeast mold agar (YM agar, Difco, 271210), and Aspergillus fumigatus into a malt extract agar (Difco, 211220), before incubation at 35° C. for two to ten days.
(§3) From the agars on which the yeast molds were grown, single colonies were picked up, and each was sufficiently suspended in 5 mL of already prepared, 0.85% sterile saline. After correction of the absorbance to 0.108 at 530 nm, each of the suspensions was diluted to a ratio of 1:50 in an RPMI (Roswell park memorial institute) 1640 medium and then to a ratio of 1:20 to prepare an inoculum having a cell density of from 1.0×10^3 to 5.0×10^3CFU/mL. The cell density was adjusted into […]˜5.0×10^4 CFU/mL for Aspergillus fumigates and 0.4×10^4˜5.0×10^4 CFU/mL for both Trichophyton mentagrophytes and Trichophyton rubrum.
(§4) The antifungal agent samples were prepared by diluting the active compounds in an RPMI 1640 medium to a serial density of from 0.0156 to 32 μg/mL. In this context, dimethylsulfoxide (DMSO) was used as an excipient at a final concentration of 1% (v/v). The serial dilutions were aliquoted at a volume of 0.1 mL and applied to 0.1 mL of the aliquots of each inoculum, followed by incubation.
(§5) With the naked eyes, an observation was made of all of the yeast molds, but Cryptococcus neoformans 24 hrs after the application, Cryptococcus neoformans and Aspergillus fumigatus 48 hrs after the application, and Trichophyton mentagrophytes and Trichophyton rubrum five days after the application to examine whether the fungi grew or not. In addition, Alamarblue™ as used to determine the concentrations of the compounds of the present invention at which the growth of the microorganisms was 80% inhibited compared to that of the negative control. All experiments were performed in duplicate for each of the test concentration groups.

Candida glabrata = test: in vitro antifungal activity (MIC80), Candida glabrata; conditions: Nakaseomyces glabratus, 24 h, read-out: Antifungal Activity (MIC80) C. grabrata
Protocol: as §1, §2, §3, §4, §5

Candida krusei = test: in vitro antifungal activity (MIC80), Candida krusei; conditions: Pichia kudriavzevii; 80% growth inhibition vs negative control; RPMI 1640; read 24 hrs after application; read-out: Antifungal Activity (MIC80) C. krusei
Protocol: as §1, §2, §3, §4, §5

Candida tropicalis = test: in vitro antifungal activity (MIC80), Candida tropicalis; conditions: 80% growth inhibition vs negative control, RPMI 1640, read 24 hrs after application, read-out: Antifungal Activity (MIC80) C. tropicalis
Protocol: as §1, §2, §3, §4, §5

Candida parapsilosis = test: in vitro antifungal activity (MIC80), Candida parapsilosis; conditions: Lodderomyces parapsilosis; 80% growth inhibition vs negative control; RPMI 1640; read 24 hrs after application; read-out: Antifungal Activity (MIC80) C. parapsilosis
Protocol: as §1, §2, §3, §4, §5

Cryptococcus neoformans = test: in vitro antifungal activity (MIC80), Cryptococcus neoformans; conditions: 80% growth inhibition vs negative control, RPMI 1640, read 48 hrs after application
Protocol: as §1, §2, §3, §4, §5

Aspergillus fumigatus = test: in vitro antifungal activity (MIC80), Aspergillus fumigatus; conditions: 80% growth inhibition vs negative control, RPMI 1640, read 48 hrs after application
Protocol: as §1, §2, §3, §4, §5

[1] = system: Trichophyton mentagrophytes; test: in vitro antifungal activity (MIC80), Trichophyton mentagrophytes; conditions: 120 h, 80% growth inhibition vs negative control, RPMI 1640, read five days after application
Protocol: as §1, §2, §3, §4, §5

Trichophyton rubrum = test: in vitro antifungal activity (MIC80), Trichophyton rubrum; conditions: 120 h, 80% growth inhibition vs negative control, RPMI 1640, read five days after application
Protocol: as §1, §2, §3, §4, §5

[2] = Table 1, read-out: Antifungal Activity (MIC80) C. albicans
[3] = Table 2, read-out: Antifungal Activity (MIC80) Candida albicans

| Structure (SMILES) | MIC80 (Candida albicans; [3]) [µg/mL] | MIC80 (Candida albicans; [2]) [µg/mL] | MIC80 (Candida glabrata) [µg/mL] | MIC80 (Candida krusei) [µg/mL] | MIC80 (Aspergillus fumigatus) [µg/mL] | further results |
| --- | --- | --- | --- | --- | --- | --- |
| C[C@@H](N1CCC(Oc2ncccn2)CC1)[C@](O)(Cn1cncn1)c1ccc(F)cc1F [Example 29, (2R,3R)-2-(2,4-difluorophenyl)-3-(4-(pyrimidin-2-yloxy)piperidin-1-yl)-1-(1H-1,2,4-triazol-1-yl)butan-2-ol] |  | ≤ 0.015 | 1 (≈ 2.32 µM) | 0.5 (≈ 1.16 µM) | 1 (≈ 2.32 µM) | MIC80 (Candida tropicalis): 0.25 µg/mL (≈ 0.581 µM); MIC80 (Candida parapsilosis): 0.062 µg/mL (≈ 0.144 µM); MIC80 (Cryptococcus neoformans): ≤ 0.015 µg/mL; MIC80 [1]: 0.062 µg/mL (≈ 0.144 µM); MIC80 (Trichophyton rubrum): ≤ 0.125 µg/mL |
| C[C@@H](N1CCC(Nc2ccc(Cl)cn2)CC1)[C@](O)(Cn1cncn1)c1ccc(F)cc1F [Example 59, (2R,3R)-3-(4-((5-chloropyridin-2-yl)-amino)piperidin-1-yl)-2-(2,4-difluorophenyl)-1-(1H-1,2,4-triazol-1-yl)butan-2-ol] |  | ≤ 0.015 | 0.25 (≈ 0.54 µM) | 0.062 (≈ 0.134 µM) | 0.25 (≈ 0.54 µM) | MIC80 (Candida tropicalis): 0.125 µg/mL (≈ 0.27 µM); MIC80 (Candida parapsilosis): ≤ 0.015 µg/mL; MIC80 (Cryptococcus neoformans): ≤ 0.015 µg/mL; MIC80 [1]: ≤ 0.125 µg/mL; MIC80 (Trichophyton rubrum): ≤ 0.125 µg/mL |
| C[C@@H](N1CCC(Nc2ncc(F)cn2)CC1)[C@](O)(Cn1cncn1)c1ccc(F)cc1F [Example 63, (2R,3R)-2-(2,4-difluorophenyl)-3-(4-((5-fluoropyrimidin-2-yl)amino)piperidin-1-yl)-1-(1H-1,2,4-triazol-1-yl)butan-2-ol] |  | ≤ 0.015 | 1 (≈ 2.23 µM) | ≤ 0.062 | 0.25 (≈ 0.559 µM) | MIC80 [1]: ≤ 0.004 µg/mL; MIC80 (Trichophyton rubrum): 0.015 µg/mL (≈ 0.0335 µM) |
| C[C@@H](N1CCC(Nc2ccc(F)cn2)CC1)[C@](O)(Cn1cncn1)c1ccc(F)cc1F [Example 58, (2R,3R)-2-(2,4-difluorophenyl)-3-(4-((5-fluoropyridin-2-yl)amino)piperidin-1-yl)-1-(1H-1,2,4-triazol-1-yl)butan-2-ol] |  | ≤ 0.015 | 1 (≈ 2.24 µM) | 0.062 (≈ 0.139 µM) | 0.125 (≈ 0.28 µM) | MIC80 (Candida tropicalis): 0.125 µg/mL (≈ 0.28 µM); MIC80 (Candida parapsilosis): 0.062 µg/mL (≈ 0.139 µM); MIC80 [1]: ≤ 0.125 µg/mL; MIC80 (Trichophyton rubrum): ≤ 0.125 µg/mL |
| C[C@@H](N1CCC(Oc2ccc(Cl)cc2)CC1)[C@](O)(Cn1cncn1)c1ccc(F)cc1F [Example 7, (2R,3R)-3-(4-(4-chlorophenoxy)piperidin-1-yl)-2-(2,4-difluorophenyl)-1-(1H-1,2,4-triazol-1-yl)butan-2-ol] |  | ≤ 0.015 |  |  | ≤ 0.125 |  |
| C[C@@H](N1CCC(Oc2ccc(C(F)(F)F)cc2)CC1)[C@](O)(Cn1cncn1)c1ccc(F)cc1F [Example 13, (2R,3R)-2-(2,4-difluorophenyl)-1-(1H-1,2,4-triazol-1-yl)-3-(4-(4-(trifluoromethyl)phenoxy)piperidin-1-yl)butan-2-ol] |  | ≤ 0.015 |  |  | 1 (≈ 2.01 µM) |  |
| Cc1cc(C(F)(F)F)cnc1N1CCC(N[C@H](C)[C@](O)(Cn2cncn2)c2ccc(F)cc2F)CC1 [Example 148, (2R,3R)-2-(2,4-difluorophenyl)-3-((1-(3-methyl-5-(trifluoromethyl)pyridin-2-yl)piperidin-4-yl)amino)-1-(1H-1,2,4-triazol-1-yl)butan-2-ol] |  | ≤ 0.015 | 0.25 (≈ 0.49 µM) | ≤ 0.062 | 1 (≈ 1.96 µM) |  |
| C[C@@H](N1CCC(N(C)c2ccc(C(F)(F)F)cc2)CC1)[C@](O)(Cn1cncn1)c1ccc(F)cc1F [Example 79, (2R,3R)-2-(2,4-difluorophenyl)-3-(4-(methyl(4-(trifluoromethyl)phenyl)amino)piperidin-1-yl)-1-(1H-1,2,4-triazol-1-yl)butan-2-ol] | ≤ 0.015 |  |  |  |  |  |
| C[C@@H](NC1CCN(c2ncc(F)cn2)CC1)[C@](O)(Cn1cncn1)c1ccc(F)cc1F [Example 151, (2R,3R)-2-(2,4-difluorophenyl)-3-((1-(5-fluoropyrimidin-2-yl)piperidin-4-yl)-amino)-1-(1H-1,2,4-triazol-1-yl)butan-2-ol] |  | ≤ 0.015 | 1 (≈ 2.23 µM) | 0.25 (≈ 0.559 µM) | 1 (≈ 2.23 µM) | MIC80 (Candida tropicalis): 0.25 µg/mL (≈ 0.559 µM); MIC80 (Candida parapsilosis): 0.125 µg/mL (≈ 0.279 µM); MIC80 [1]: ≤ 0.004 µg/mL; MIC80 (Trichophyton rubrum): 0.015 µg/mL (≈ 0.0335 µM) |
| C[C@@H](N1CCC(Nc2ccc(C(F)(F)F)cc2)CC1)[C@](O)(Cn1cncn1)c1ccc(F)cc1F [Example 46, (2R,3R)-2-(2,4-difluorophenyl)-1-(1H-1,2,4-triazol-1-yl)-3-(4-((4-(trifluoromethyl)phenyl)amino)piperidin-1-yl)butan-2-ol] | ≤ 0.015 |  |  |  |  |  |
| C[C@@H](N1CCC(N(C)c2ccc(C#N)cc2)CC1)[C@](O)(Cn1cncn1)c1ccc(F)cc1F [Example 82, 4-((1-((2R,3R)-3-(2,4-difluorophenyl)-3-hydroxy-4-(1H-1,2,4-triazol-1-yl)butan-2-yl)piperidin-4-yl)(methyl)amino)benzonitrile] | ≤ 0.015 |  |  |  |  |  |
| C[C@@H](NC1CCN(c2ncccn2)CC1)[C@](O)(Cn1cncn1)c1ccc(F)cc1F [Example 149, (2R,3R)-2-(2,4-difluorophenyl)-3-((1-(pyrimidin-2-yl)piperidin-4-yl)amino)-1-(1H-1,2,4-triazol-1-yl)butan-2-ol] | ≤ 0.015 |  |  |  |  |  |
| C[C@@H](N1CCC(Nc2ncc(C(F)(F)F)cc2Cl)CC1)[C@](O)(Cn1cncn1)c1ccc(F)cc1F [Example 60, (2R,3R)-3-(4-((3-chloro-5-(trifluoromethyl)pyridin-2-yl)amino)piperidin-1-yl)-2-(2,4-difluorophenyl)-1-(1H-1,2,4-triazol-1-yl)butan-2-ol] | ≤ 0.015 |  |  |  |  |  |
| Cc1cc(C(F)(F)F)cnc1N1CCC(O[C@H](C)[C@](O)(Cn2cncn2)c2ccc(F)cc2F)CC1 [Example 116, (2R,3R)-2-(2,4-difluorophenyl)-3-((1-(3-methyl-5-(trifluoromethyl)pyridin-2-yl)piperidin-4-yl)oxy)-1-(1H-1,2,4-triazol-1-yl)butan-2-ol] | ≤ 0.015 |  |  |  |  |  |
| C[C@@H](NC1CCN(c2ccc(C#N)cc2)CC1)[C@](O)(Cn1cncn1)c1ccc(F)cc1F [Example 137, 4-(4-(((2R,3R)-3-(2,4-difluorophenyl)-3-hydroxy-4-(1H-1,2,4-triazol-1-yl)butan-2-yl)amino)piperidin-1-yl)benzonitrile] | ≤ 0.015 |  |  |  |  |  |
| C[C@@H](OC1CCN(c2ccc(C(F)(F)F)cc2)CC1)[C@](O)(Cn1cncn1)c1ccc(F)cc1F [Example 102, (2R,3R)-2-(2,4-difluorophenyl)-1-(1H-1,2,4-triazol-1-yl)-3-((1-(4-(trifluoromethyl)phenyl)piperidin-4-yl)oxy)butan-2-ol] | ≤ 0.015 |  |  |  |  |  |

Now from value to compound, other results behind:

| MIC80 (Candida albicans; [3]) [µg/mL] | Structure (SMILES) | MIC80 (Candida albicans; [2]) [µg/mL] | MIC80 (Candida glabrata) [µg/mL] | MIC80 (Candida krusei) [µg/mL] | MIC80 (Aspergillus fumigatus) [µg/mL] | further results |
| --- | --- | --- | --- | --- | --- | --- |
| ≤ 0.015 | C[C@@H](N1CCC(Nc2ccccc2)CC1)[C@](O)(Cn1cncn1)c1ccc(F)cc1F [Example 35, (2R,3R)-2-(2,4-difluorophenyl)-3-(4-(phenylamino)piperidin-1-yl)-1-(1H-1,2,4-triazol-1-yl)butan-2-ol] |  |  |  |  |  |
| ≤ 0.015 | C[C@@H](N1CCC(Oc2ccc(F)cn2)CC1)[C@](O)(Cn1cncn1)c1ccc(F)cc1F [Example 25, (2R,3R)-2-(2,4-difluorophenyl)-3-(4-((5-fluoropyridin-2-yl)oxy)piperidin-1-yl)-1-(1H-1,2,4-triazol-1-yl)butan-2-ol] |  |  |  |  |  |
| ≤ 0.015 | C[C@@H](OC1CCN(c2ccc(F)cc2)CC1)[C@](O)(Cn1cncn1)c1ccc(F)cc1F [Example 93, (2R,3R)-2-(2,4-difluorophenyl)-3-((1-(4-fluorophenyl)piperidin-4-yl)oxy)-1-(1H-1,2,4-triazol-1-yl)butan-2-ol] |  |  |  |  |  |
| ≤ 0.015 | C[C@@H](N1CCC(Nc2ccc(F)cc2)CC1)[C@](O)(Cn1cncn1)c1ccc(F)cc1F [Example 38, (2R,3R)-2-(2,4-difluorophenyl)-3-(4-((4-fluorophenyl)amino)piperidin-1-yl)-1-(1H-1,2,4-triazol-1-yl)butan-2-ol] |  |  |  |  |  |
